Measurements from PMC4740303, “The Sigma-2 Receptor and Progesterone Receptor Membrane Component 1 are Different Binding Sites Derived From Independent Genes” (EBioMedicine, 2015).
Numbering of substitutions follows the chain as printed. “Also recorded” adds a separate entry of the source.

Columns and labels:
S1R [1] = biological target: T1, S1R (Mus musculus, UniProt O55242); assay: [^125I]-IAF photolabeling of the S1R in NSC34 cell membranes; type: binding; details: NSC34 membranes (control and PGRMC1 knockout)
T1 construct: membranes prepared from control and PGRMC1 knockout (clones 38 and 207) NSC34 cells; endogenous in cells; host or cells: NSC34 cells (control and PGRMC1 knockout clones 38 and 207)
Protocol: (§1) Cell membrane preparation was performed following our established method ([Guo et al., 2012]). Briefly, cell pellets were suspended in PBS and sonicated on ice using the following settings: 5 sets (10 strokes/set) at duty cycle = 50, output control = 5. Cell homogenates were centrifuged at 8000 × g for 10 min, and the resulting supernatant was collected and subjected to ultracentrifugation at 100,000 × g for 1 h. The supernatant was discarded and the pellet was gently washed twice with ice-cold PBS. The pellet was then resuspended in PBS and sonicated (3 sets, 10 strokes/set at duty cycle = 50, output control = 5) to homogeneity. Protein concentration was then measured using the standard Bradford reagent (Sigma-Aldrich, St. Louis, MO).
(§2) The synthesis of [^125I]-IAF and photolabeling was performed according to our published method ([Pal et al., 2007]). […] [^125I]-IAF was then added (final 1 nM) and incubated for another 40 min with gentle shaking in the dark. Photoactivation of [^125I]-IAF was performed by exposing the samples to a high-pressure AH-6 mercury lamp for 5 s and Laemmli buffer was immediately added to each sample. The samples were then resolved on a 16 × 18 cm SDS gel with 6–18% acrylamide gradient. The gel was dried and exposed to a phosphor screen for 24–48 h and autoradiograms were recorded using a Phosphoimager (Molecular Dynamics).

S1R [2] = biological target: T1, S1R; details: cited from earlier work; for affinity for the S1R: ref Hellewell et al., 1994
PGRMC1 [3] = test system: PGRMC1; parameters: method as in Xu et al., 2011; details: ref Xu et al., 2011, cited from earlier work
S1R [4] = biological target: T1, S1R; parameters: method as in Matsumoto et al., 2014; details: competitive [^3H]-DTG binding assays; ref Matsumoto et al., 2014; cited from earlier work
S2R [5] = biological target: T2, S2R (Mus musculus, UniProt Q8VD00); parameters: method as in Matsumoto et al., 2014; details: competitive [^3H]-DTG binding assays; ref Matsumoto et al., 2014; cited from earlier work
T2 construct: Membranes (28 μg total proteins per reaction) prepared from NSC34 cells of controls, PGRMC1 knockout, or PGRMC1-3 × HA overexpression; endogenous in cells; host or cells: NSC34 cells (control, PGRMC1 knockout clones 38 and 207, PGRMC1-3xHA overexpressing)
T2 sequence (Q8VD00 1-176): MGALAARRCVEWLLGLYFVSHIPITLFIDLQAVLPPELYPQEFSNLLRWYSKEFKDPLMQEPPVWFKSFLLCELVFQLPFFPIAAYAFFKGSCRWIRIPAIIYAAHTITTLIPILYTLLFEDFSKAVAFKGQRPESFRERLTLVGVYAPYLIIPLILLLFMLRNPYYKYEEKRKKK

S2R [6] = biological target: T3, S2R (Rattus norvegicus, UniProt Q5U3Y7); assay: [^125I]-IAF photolabeling of the S2R in PC12 membranes; type: binding
T3 construct: [^125I]-IAF photolabeling of the S2R in PC12 membranes; endogenous in cells; host or cells: PC12 cells
T3 sequence (Q5U3Y7 1-176): T2 sequence (Q8VD00 1-176) with L4V, A5T, L26M, V33L, L71F, A105V, L118I, V127I, S136N, Y169F
Protocol: as §1, §2

S2R [7] = biological target: T2, S2R; details: cited from earlier work
S2R [8] = biological target: T2, S2R; assay: [^125I]-IAF photolabeling of the S2R in NSC34 cell membranes; type: binding; details: NSC34 membranes (control and PGRMC1 knockout); 20 μM
Protocol: as §1, §2

S2R [9] = biological target: T2, S2R; parameters: method as in Pal et al., 2007; details: earlier work of the group; ref Pal et al., 2007; cited from earlier work
PGRMC1 [10] = biological target: PGRMC1 (Rattus norvegicus, UniProt P70580); assay: biochemical
Protocol: Liver tissues were homogenized (10 ml buffer/g wet tissue) by 4 bursts of 10 s each using a Brinkman polytron (American Laboratory Trading Inc., East Lyme, CT) on setting 6 in ice-cold sodium phosphate buffer (10 mM pH 7.4) containing 0.32 M sucrose and a cocktail of protease inhibitors (20 μg/ml leupeptin, 5 μg/ml soybean trypsin inhibitor, 100 μM phenylmethylsulfonyl fluoride (PMSF), 100 μM benzamidine and 1 mM EDTA). The membrane suspension after homogenization was centrifuged for 10 min at 17,000 × g and the supernatant was subjected to ultracentrifugation at 100,000 × g for 1 h to collect membrane fractions. The pellet from the second centrifugation was resuspended to a protein concentration of 10 mg/ml in the foregoing buffer, snapped frozen and stored at − 80 °C.
Inhibition of [^3H]-progesterone binding to PGRMC1 was performed according to [Peluso et al. (2008)]. […] After incubation at 37 °C for 60 min, the reaction was terminated by rapid filtration through glass fiber filters, using a Brandel cell harvester and processed as described above. […] Nonspecific binding was monitored in the presence of nonradioactive progesterone at 10 μM and subtracted from total [^3H]-progesterone binding.

S1R [11] = biological target: T4, S1R (Rattus norvegicus, UniProt Q9R0C9); assay: [^125I]-IAF photolabeling of the S1R in PC12 membranes; type: binding; details: 20 μM
T4 construct: endogenous in cells; host or cells: PC12 cells
Protocol: as §1, §2

S2R [12] = biological target: T2, S2R; assay: Saturation binding of [^3H]-DTG in NSC34 cell membranes, S1R masked with (+)-pentazocine; details: mean ± SEM
Protocol: as §1

PGRMC1 [13] = details: ref Peluso et al., 2008; cited from earlier work
S2R (sigma-2 receptor) = biological target: T5, S2R (sigma-2 receptor) (Rattus norvegicus, UniProt Q5U3Y7); assay: Inhibition of [^3H]-DTG binding to the S2R in rat liver membranes
T5 construct: Experiments were performed with rat liver membranes; tissue Pel Freez Biologicals; host or cells: rat liver
T5 sequence (Q5U3Y7 1-176): T2 sequence (Q8VD00 1-176) with L4V, A5T, L26M, V33L, L71F, A105V, L118I, V127I, S136N, Y169F
Protocol: Rat liver membranes, a rich source of sigma-2 receptor, were prepared as described in our previous reports ([Pal et al., 2007], [Guo et al., 2012]) from frozen tissues (Pel Freez Biologicals, Rogers, AR). Liver tissues were homogenized (10 ml buffer/g wet tissue) by 4 bursts of 10 s each using a Brinkman polytron (American Laboratory Trading Inc., East Lyme, CT) on setting 6 in ice-cold sodium phosphate buffer (10 mM pH 7.4) containing 0.32 M sucrose and a cocktail of protease inhibitors (20 μg/ml leupeptin, 5 μg/ml soybean trypsin inhibitor, 100 μM phenylmethylsulfonyl fluoride (PMSF), 100 μM benzamidine and 1 mM EDTA). The membrane suspension after homogenization was centrifuged for 10 min at 17,000 × g and the supernatant was subjected to ultracentrifugation at 100,000 × g for 1 h to collect membrane fractions. The pellet from the second centrifugation was resuspended to a protein concentration of 10 mg/ml in the foregoing buffer, snapped frozen and stored at − 80 °C.

T1 sequence (O55242 whole entry): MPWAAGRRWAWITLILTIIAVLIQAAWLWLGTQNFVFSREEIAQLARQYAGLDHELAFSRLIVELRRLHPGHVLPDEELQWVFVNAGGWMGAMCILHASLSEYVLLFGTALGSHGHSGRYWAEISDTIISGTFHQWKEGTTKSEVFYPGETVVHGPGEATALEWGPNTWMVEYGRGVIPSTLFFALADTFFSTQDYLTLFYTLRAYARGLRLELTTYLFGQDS
T4 sequence (Q9R0C9 whole entry): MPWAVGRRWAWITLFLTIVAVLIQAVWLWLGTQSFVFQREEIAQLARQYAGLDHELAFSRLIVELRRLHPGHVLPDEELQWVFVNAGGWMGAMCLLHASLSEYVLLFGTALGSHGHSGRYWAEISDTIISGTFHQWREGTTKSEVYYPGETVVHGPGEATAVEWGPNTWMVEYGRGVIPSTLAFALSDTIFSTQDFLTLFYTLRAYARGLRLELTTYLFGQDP
Chain of PGRMC1 (Rattus norvegicus, UniProt P70580) (P70580 whole entry): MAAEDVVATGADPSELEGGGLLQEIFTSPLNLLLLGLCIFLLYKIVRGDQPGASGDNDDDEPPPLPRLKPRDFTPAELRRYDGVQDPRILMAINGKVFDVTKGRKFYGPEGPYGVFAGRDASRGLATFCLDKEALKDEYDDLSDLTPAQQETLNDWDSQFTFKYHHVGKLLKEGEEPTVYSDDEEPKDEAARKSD

## CC(C)=CCN1CC[C@]2(C)c3cc(O)ccc3C[C@H]1[C@H]2C [(+)-pentazocine]
S1R [1]; 5 μM
  protection of [^125I]-IAF photolabeling of the S1R (26 kDa band): protected against [^125I]-IAF photolabeling of the S1R; also recorded: readily protected
S1R [2]
  affinity for the S1R: < 10 nM
PGRMC1 [3]
  ligand for PGRMC1: not a ligand for PGRMC1

## COc1cc2c(cc1OC)CN(CCCCn1c(=O)n(C)c3ccccc31)CC2 [CM398]
S1R [4]
  Ki: 560 nM
S2R [5]
  Ki: 0.43 nM
S2R [6]; 1 and 10 μM
  protection of [^125I]-IAF photolabeling of the S2R: selectively blocked the labeling of the S2R

## O=c1oc2cc(N=C=S)ccc2n1CCCCN1CCN(c2ccc(F)cc2)CC1 [CM572]
S2R [7]; ref Nicholson et al., 2015
  type of S2R ligand: irreversible selective affinity label for the S2R

## Cc1ccccc1NC(=N)Nc1ccccc1C [DTG, 1,3-di-o-tolylguanidine]
S1R [1]; 20 μM
  protection of [^125I]-IAF photolabeling of the S1R (26 kDa band): protected against photolabeling of both the S1R and the S2R
S2R [8]
  protection of [^125I]-IAF photolabeling of the S2R (~18 kDa band): protected against photolabeling of both the S1R and the S2R
S2R [9]
  protection of the [^125I]-IAF photolabeled S2R band: protected
S1R [2]; read-out: KD for DTG at the S1R, depending on sources of membranes and assay methods, ref Weber et al., 1986, Quirion et al., 1992, Itzhak and Kassim, 1990, Itzhak, 1987
  Kd: 20 to 80 nM
S1R [2]
  affinity for the S1R: ~ 50 nM
S2R [7]; ref Hellewell et al., 1994
  affinity for the S2R: ~ 50 nM
PGRMC1 [3]; 1 μM
  protection of photolabeling of PGRMC1 (with WC-21): protected the photolabeling of PGRMC1
PGRMC1 [10]
  Ki: 472000 nM
S2R [6]; 20 μM
  protection of [^125I]-IAF photolabeling of the S2R: protected
S1R [11]
  protection of [^125I]-IAF photolabeling of the S1R: protected

## Cc1ccccc1NC(=N)Nc1ccccc1C [[^3H]-DTG, [^3H]-1,3-Di-tolylguanidine]
S2R [12]; Control NSC34 cells (expression vector without PGRMC1 gene)
  Bmax: 2.35 ± 0.5 pmol/mg
S2R [12]; PGRMC1-HA overexpressing NSC34 cells
  Bmax: 2.5 ± 0.08 pmol/mg

## CC(=O)[C@H]1CC[C@H]2[C@@H]3CCC4=CC(=O)CC[C@]4(C)[C@H]3CC[C@]12C [[^3H]-progesterone]
PGRMC1 [13]
  Kd: 35 nM

## CC(=O)[C@H]1CC[C@H]2[C@@H]3CCC4=CC(=O)CC[C@]4(C)[C@H]3CC[C@]12C [progesterone]
PGRMC1 [13]
  Kd: 35 nM
S2R (sigma-2 receptor)
  Ki: 14200 ± 4900 nM
